Legend:
[1] = target: GDP-bound HRAS wild-type protein (Homo sapiens, UniProt P01112); experiment: Binding to HRAS by surface plasmon resonance (SPR), Single Cycle Kinetics; details: SPR, GDP-bound HRAS wild-type vs GDP-bound KRAS wild-type
[2] = target: GDP-bound NRAS wild-type protein (Homo sapiens, UniProt P01111); experiment: Binding to NRAS by surface plasmon resonance (SPR), Single Cycle Kinetics; details: SPR, GDP-bound NRAS wild-type vs GDP-bound KRAS wild-type
Chain of GDP-bound NRAS wild-type protein (P01111 whole entry): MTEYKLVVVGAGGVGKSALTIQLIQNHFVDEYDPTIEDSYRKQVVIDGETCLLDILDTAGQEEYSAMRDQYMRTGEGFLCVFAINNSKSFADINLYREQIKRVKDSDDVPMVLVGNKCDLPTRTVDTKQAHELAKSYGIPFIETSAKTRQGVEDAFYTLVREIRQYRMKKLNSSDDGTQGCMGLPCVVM

Chain of GDP-bound HRAS wild-type protein (P01112 whole entry): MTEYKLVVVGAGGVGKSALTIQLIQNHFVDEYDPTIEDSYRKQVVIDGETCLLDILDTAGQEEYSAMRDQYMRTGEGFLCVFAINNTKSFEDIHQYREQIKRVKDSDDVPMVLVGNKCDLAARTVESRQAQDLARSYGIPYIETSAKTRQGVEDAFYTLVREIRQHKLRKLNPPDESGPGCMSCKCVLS

SMILES | HRAS/KRAS (ratio of KD value with respect to HRAS to KD value with respect to KRAS) [1] | NRAS/KRAS (ratio of KD value with respect to NRAS to KD value with respect to KRAS) [2]
CCCOC[C@H]1C(=O)N[C@@H]([C@@H](C)CC)C(=O)N2CCC[C@H]2C(=O)N(C)[C@H]2C/C=C\CCN(C2=O)[C@@H](Cc2ccc(C(F)(F)F)cc2)C(=O)N(C)CC(=O)N[C@@H](CCc2ccc(C(F)(F)F)c(OC)c2)C(=O)N2C[C@H](OCC)C[C@H]2C(=O)N(C)C2(CCC2)C(=O)N(C)[C@@H](C2CCCC2)C(=O)N(C)[C@H](C(=O)N(C)C)CC(=O)N1C [PP2322] | B (a compound having 3 or more and less than 10 is denoted as B) | A (a compound having 10 or more and less than 20 is denoted as A)
CCCOC[C@H]1C(=O)N[C@@H]([C@@H](C)CC)C(=O)N(C)CC(=O)N(C)[C@H]2C/C=C\CCN(C2=O)[C@@H](Cc2ccc(C)cc2)C(=O)N(C)CC(=O)N[C@@H](CCc2ccc(C(F)(F)F)c(OC)c2)C(=O)N2C[C@H](OCC)C[C@H]2C(=O)N(C)C2(CCC2)C(=O)N(C)[C@@H](C(CC)CC)C(=O)N(C)[C@H](C(=O)N(C)C)CC(=O)N1C [PP2323] | A (a compound having 10 or more and less than 20 is denoted as A) | A (a compound having 10 or more and less than 20 is denoted as A)
CCC[C@H]1C(=O)N[C@@H]([C@@H](C)CC)C(=O)N(C2CC2)CC(=O)N(C)[C@H]2C/C=C\CCN(C2=O)[C@@H](Cc2ccc(C)cc2)C(=O)N(C)CC(=O)N[C@@H](CCc2ccc(C(F)(F)F)c(OC)c2)C(=O)N2C[C@H](OCC)C[C@H]2C(=O)N(C)C2(CCC2)C(=O)N(C)[C@@H](C(CC)CC)C(=O)N(C)[C@H](C(=O)N(C)C)CC(=O)N1C [PP2325] | A (a compound having 10 or more and less than 20 is denoted as A) | A (a compound having 10 or more and less than 20 is denoted as A)
CCCOC[C@H]1C(=O)N[C@@H]([C@@H](C)CC)C(=O)N(C)CC(=O)N(C)[C@H]2C/C=C\CCN(C2=O)[C@@H](Cc2ccc(C)cc2)C(=O)N(C)CC(=O)N[C@@H](CCc2ccc(C(F)(F)F)c(OC)c2)C(=O)N2C[C@H](OCC)C[C@H]2C(=O)N(C)C2(CCC2)C(=O)N(C)[C@@H](C2CCCC2)C(=O)N(C)[C@H](C(=O)N(C)C)CC(=O)N1C [PP2326] | B (a compound having 3 or more and less than 10 is denoted as B) | A (a compound having 10 or more and less than 20 is denoted as A)
CCCOC[C@H]1C(=O)N[C@@H]([C@@H](C)CC)C(=O)N(C2CC2)CC(=O)N(C)[C@H]2C/C=C\CCN(C2=O)[C@@H](Cc2ccc(C)cc2)C(=O)N(C)CC(=O)N[C@@H](CCc2ccc(C(F)(F)F)c(OC)c2)C(=O)N2C[C@H](OCC)C[C@H]2C(=O)N(C)C2(CCC2)C(=O)N(C)[C@@H](C(CC)CC)C(=O)N(C)[C@H](C(=O)N(C)C)CC(=O)N1C [PP2327] | A (a compound having 10 or more and less than 20 is denoted as A) | A (a compound having 10 or more and less than 20 is denoted as A)
CCC[C@H]1C(=O)N[C@@H]([C@@H](C)CC)C(=O)N(C2CC2)CC(=O)N(C)[C@H]2C/C=C\CCN(C2=O)[C@@H](Cc2ccc(C)cc2)C(=O)N(C)CC(=O)N[C@@H](CCc2ccc(C(F)(F)F)c(OC)c2)C(=O)N2C[C@H](OCC)C[C@H]2C(=O)N(C)C2(CCC2)C(=O)N(C)[C@@H](C2CCCC2)C(=O)N(C)[C@H](C(=O)N(C)C)CC(=O)N1C [PP2328, (2S,8S,12R,14S,20S,23S,27S,30S,36S,38Z)-20-cyclopentyl-32-cyclopropyl-12-ethoxy-8-[2-[3-methoxy-4-(trifluoromethyl)phenyl]ethyl]-N,N,4,16,19,22,26,35-octamethyl-30-[(1S)-1-methylpropyl]-3,6,9,15,18,21,25,28,31,34,42-undecaoxo-27-propyl-2-(p-tolylmethyl)spiro[1,4,7,10,16,19,22,26,29,32,35-undecazatricyclo[34.5.1.0^10,14]dotetracont-38-ene-17,1′-cyclobutane]-23-carboxamide] | A (a compound having 10 or more and less than 20 is denoted as A) | A (a compound having 10 or more and less than 20 is denoted as A)
CCC[C@H]1C(=O)N[C@@H]([C@@H](C)CC)C(=O)N2CCC[C@H]2C(=O)N(C)[C@H]2C/C=C\CCN(C2=O)[C@@H](Cc2ccc(C)cc2)C(=O)N(C)CC(=O)N[C@@H](CCc2ccc(C(F)(F)F)c(OC)c2)C(=O)N2C[C@H](OCC)C[C@H]2C(=O)N(C)C2(CCC2)C(=O)N(C)[C@@H](C(CC)CC)C(=O)N(C)[C@H](C(=O)N(C)C)CC(=O)N1C [PP2329] | A (a compound having 10 or more and less than 20 is denoted as A) | A (a compound having 10 or more and less than 20 is denoted as A)
CCCOC[C@H]1C(=O)N[C@@H]([C@@H](C)CC)C(=O)N(C2CC2)CC(=O)N(C)[C@H]2C/C=C\CCN(C2=O)[C@@H](Cc2ccc(C)cc2)C(=O)N(C)CC(=O)N[C@@H](CCc2ccc(C(F)(F)F)c(OC)c2)C(=O)N2C[C@H](OCC)C[C@H]2C(=O)N(C)C2(CCC2)C(=O)N(C)[C@@H](C2CCCC2)C(=O)N(C)[C@H](C(=O)N(C)C)CC(=O)N1C [PP2330] | A (a compound having 10 or more and less than 20 is denoted as A) | A (a compound having 10 or more and less than 20 is denoted as A)
CCCOC[C@H]1C(=O)N[C@@H]([C@@H](C)CC)C(=O)N2CCC[C@H]2C(=O)N(C)[C@H]2C/C=C\CCN(C2=O)[C@@H](Cc2ccc(C)cc2)C(=O)N(C)CC(=O)N[C@@H](CCc2ccc(C(F)(F)F)c(OC)c2)C(=O)N2C[C@H](OCC)C[C@H]2C(=O)N(C)C2(CCC2)C(=O)N(C)[C@@H](C(CC)CC)C(=O)N(C)[C@H](C(=O)N(C)C)CC(=O)N1C [PP2331] | A (a compound having 10 or more and less than 20 is denoted as A) | AA (a compound having 20 or more is denoted as AA)
CCC[C@H]1C(=O)N[C@@H]([C@@H](C)CC)C(=O)N2CCC[C@H]2C(=O)N(C)[C@H]2C/C=C\CCN(C2=O)[C@@H](Cc2ccc(C)cc2)C(=O)N(C)CC(=O)N[C@@H](CCc2ccc(C(F)(F)F)c(OC)c2)C(=O)N2C[C@H](OCC)C[C@H]2C(=O)N(C)C2(CCC2)C(=O)N(C)[C@@H](C2CCCC2)C(=O)N(C)[C@H](C(=O)N(C)C)CC(=O)N1C [PP2332] | B (a compound having 3 or more and less than 10 is denoted as B) | A (a compound having 10 or more and less than 20 is denoted as A)
CCC[C@H]1C(=O)N[C@@H]([C@@H](C)CC)C(=O)N(C)CC(=O)N(C)[C@H]2C/C=C\CCN(C2=O)[C@@H](CC2CCCCC2)C(=O)N(C)CC(=O)N[C@@H](CCc2ccc(C(F)(F)F)c(OC)c2)C(=O)N2C[C@H](OCC)C[C@H]2C(=O)N(C)C2(CCC2)C(=O)N(C)[C@@H](C(CC)CC)C(=O)N(C)[C@H](C(=O)N(C)C)CC(=O)N1C [PP2333] | A (a compound having 10 or more and less than 20 is denoted as A) | A (a compound having 10 or more and less than 20 is denoted as A)
CCCOC[C@H]1C(=O)N[C@@H]([C@@H](C)CC)C(=O)N2CCC[C@H]2C(=O)N(C)[C@H]2C/C=C\CCN(C2=O)[C@@H](Cc2ccc(C)cc2)C(=O)N(C)CC(=O)N[C@@H](CCc2ccc(C(F)(F)F)c(OC)c2)C(=O)N2C[C@H](OCC)C[C@H]2C(=O)N(C)C2(CCC2)C(=O)N(C)[C@@H](C2CCCC2)C(=O)N(C)[C@H](C(=O)N(C)C)CC(=O)N1C [PP2334] | B (a compound having 3 or more and less than 10 is denoted as B) | A (a compound having 10 or more and less than 20 is denoted as A)
CCO[C@@H]1C[C@H]2C(=O)N(C)C3(CCC3)C(=O)N(C)[C@@H](C(CC)CC)C(=O)N(C)[C@H](C(=O)N(C)C)CC(=O)N(C)[C@@H](COC)C(=O)N[C@@H]([C@@H](C)CC)C(=O)N(C)CC(=O)N(C)[C@H]3C/C=C\CCN(C3=O)[C@@H](CC3CCCCC3)C(=O)N(C)CC(=O)N[C@@H](CCc3ccc(C(F)(F)F)c(OC)c3)C(=O)N2C1 [PP2335] | A (a compound having 10 or more and less than 20 is denoted as A) | A (a compound having 10 or more and less than 20 is denoted as A)
CCC[C@H]1C(=O)N[C@@H]([C@@H](C)CC)C(=O)N(C)CC(=O)N(C)[C@H]2C/C=C\CCN(C2=O)[C@@H](CC2CCCCC2)C(=O)N(C)CC(=O)N[C@@H](CCc2ccc(C(F)(F)F)c(OC)c2)C(=O)N2C[C@H](OCC)C[C@H]2C(=O)N(C)C2(CCC2)C(=O)N(C)[C@@H](C2CCCC2)C(=O)N(C)[C@H](C(=O)N(C)C)CC(=O)N1C [PP2336] | A (a compound having 10 or more and less than 20 is denoted as A) | A (a compound having 10 or more and less than 20 is denoted as A)
CCC[C@H]1C(=O)N[C@@H]([C@@H](C)CC)C(=O)N(C2CC2)CC(=O)N(C)[C@H]2C/C=C\CCN(C2=O)[C@@H](CC2CCCCC2)C(=O)N(C)CC(=O)N[C@@H](CCc2ccc(C(F)(F)F)c(OC)c2)C(=O)N2C[C@H](OCC)C[C@H]2C(=O)N(C)C2(CCC2)C(=O)N(C)[C@@H](C(CC)CC)C(=O)N(C)[C@H](C(=O)N(C)C)CC(=O)N1C [PP2337] | A (a compound having 10 or more and less than 20 is denoted as A) | A (a compound having 10 or more and less than 20 is denoted as A)

Source: patent US20250230193A1, “CYCLIC COMPOUND HAVING SELECTIVE KRAS INHIBITORY EFFECT ON HRAS AND NRAS” (CHUGAI SEIYAKU KABUSHIKI KAISHA, priority 2022, published 2025)
